Experimental data from patent US10292963B2, “Suppression and treatment of viruses” (priority 2013, dated 2019).

Assay: Additional benefits observed in people taking betaine
Format: in vivo, human
Excerpt: While the main benefit of a person or pet taking vitamin C and betaine in combination is the prevention/suppression of tumors, as mentioned before, additional benefits can be obtained depending upon the levels taken. Betaine is known to improve cardiovascular health, and can benefit people with fatty deposits in the liver. […] After only a few weeks of taking the betaine, cholesterol levels are reduced and the ability to lose weight is improved.

[1] = after only a few weeks of taking the betaine

What does the source list for C[N+](C)(C)CC(=O)[O-] [betaine, trimethylglycine]?
tendency to be light headed on getting up after prolonged squatting or kneeling (after a few doses at about one and a half to about three grams per day, especially older people): considerably lessened; ability to lose weight [1]: improved; cholesterol levels [1]: reduced
